Holding throughout (experiment): HPLC product quantification, Eadie-Hofstee plot
Common to all, as to format: biochemical, Scutellaria baicalensis
Common to all, as to conditions: UDP-Glc as donor; 100 mM Tris-HCl pH 7.0, 37 °C, 10 min; baicalein 0.5-200 μM

In one assay the test system is T1, SbUGT1.
T1 construct: full-length ORF (de novo synthesized) in pYesdest17, E. coli Rosetta (DE3), Ni-NTA purified
An excerpt:
HPLC product quantification, Eadie-Hofstee plot on SbUGT1

In a further assay the test system is T2, SbUGT3.
T2 construct: full-length ORF (RT-PCR) in pYesdest17, E. coli Rosetta (DE3), Ni-NTA purified
An excerpt: HPLC product quantification, Eadie-Hofstee plot on SbUGT3

In another assay the test system is T3, SbUGT2.
T3 construct: full-length ORF (RT-PCR) in pYesdest17, E. coli Rosetta (DE3), Ni-NTA purified
An excerpt: HPLC product quantification, Eadie-Hofstee plot on SbUGT2

With `O=c1cc(-c2ccccc2)oc2cc(O)c(O)c(O)c12` [baicalein], the Km in the assay with SbUGT1 amounted to 3.14 µM; in the assay with SbUGT3 it was 2.67 µM; in the assay on SbUGT2 it was 101 µM.

Values taken from PMC8888134, “Characterization of UDP-glycosyltransferase family members reveals how major flavonoid glycoside accumulates in the roots of Scutellaria baicalensis” (BMC Genomics, 2022).
